“And” between values parts separate entries of the source, which are not always exact repeats. Equal values may be shown once. “Also recorded” adds a separate entry of the source.
Key:
[1] = oral, 12 months, cited from earlier work
[2] = test system: angiomyolipomas; conditions: oral, 20 patients, cited from earlier work
[3] = Particle size distribution by laser diffraction after jet milling or wet polishing; assay type: physicochemical
Experimental: For jet milling, a lab scale MCOne unit from Jetpharma was used with the following operating conditions: venturi pressure 2-4 bar, milling pressure 3-5 bar, feed rate 90 g/h. For wet polishing, feed suspensions were prepared using purified water. A microfluidics high pressure homogenizer was used for the size reduction step and the resulting suspension was spray-dried. Details of the wet polishing process are set forth below.
The high pressure homogenizer used for the size reduction step of the wet polishing process was a pilot-scale Microfluidics High Pressure Homogenizer equipped with an auxiliary processing module (200 micron) and a 100 micron interaction chamber was used. The unit was operated at ˜455 bar (˜30 bar in the intensifier module hydraulic pressure). After microfluidization the fluid was removed by spray drying to generate a dry powder. A laboratory scale spray dryer, SD45 (BÜCHI, model B-290 Advanced) was equipped with a two fluid nozzle (cap and diameter were 1.4 and 0.7 mm, respectively). Two cyclones in series were used (being the first the standard Buchi cyclone and the second the high-performance Buchi cyclone) to collect the dried product. The spray drying unit was operated with nitrogen and in single pass mode, i.e. without recirculation of the drying nitrogen. The aspirator, blowing nitrogen, was set at 100% of its capacity (flow rate at maximum capacity is approximately 40 kg/h). The flow rate of the atomization nitrogen was adjusted to a value in the rotameter of 40±5 mm. Before feeding the product suspension, the spray dryer was stabilized with purified water, during which the flow rate was adjusted to 6 ml/min (20% in the peristaltic pump). The inlet temperature was adjusted to achieve the target outlet temperature (45° C.). After stabilization of the temperatures, the feed of the spray dryer was commuted from purified water to the product suspension (keeping the same flow rate used during stabilization) and the inlet temperature once again adjusted in order to achieve the target outlet temperature. At the end of the stock suspension, the feed was once more commuted to purified water in order to rinse the feed line and perform a controlled shut down. The dry product in the collection flasks under both cyclones was weighed and the yield calculated as the mass percentage of the dry product in relation to the total solids in the suspension fed to the high pressure homogenizer.
Particle size distribution was analyzed by laser diffraction. Solid state characterization (for polymorphic form and purity) was performed by high pressure liquid chromatography (HPLC), X-ray powder diffraction (XRPD), and differential scanning calorimetry (mDSC). Water content was determined by the Karl Fischer method.

[4] = cited from earlier work
[5] = test system: mTOR; test: S6 phosphorylation in mouse lung as biomarker for mTOR activity; conditions: lung tissue
Description: To validate this approach, we used the presence of phosphorylated S6 protein in murine lung tissue as a biomarker for mTOR activity.

[6] = test system: renal angiomyolipomas; conditions: oral, 16 patients, cited from earlier work
[7] = human, cited from earlier work
[8] = study of 10 LAM patients; cited from earlier work
[9] = Observation for adverse effects / clinical signs after OPA or gavage dosing
Experimental: An additional group of 6 mice received vehicle only (10% ethanol in water). […] At the 72-h necropsy, blood was obtained by cardiac puncture and the lungs removed.
The weight of dose solution administered was determined by weighing the charged syringe with dose solution prior to dosing, and weighing following dosing. […] The time of dosing was recorded as 0. Animals in groups 2 and 3 were euthanized at 1 h after dosing.

[10] = Concentration of rapamycin in blood and lung after oropharyngeal aspiration (OPA) or oral gavage, LC-MS/MS; assay type: in vivo, C57BL/6 mice; conditions: 1 mg/kg
Experimental: Each animal was weighed prior to dosing to determine the amount of dose to be administered. A single gavage dose was administered using a 100-μL glass syringe (Hamilton, Reno, Nev.) fitted with a ball-tipped 20-G stainless steel gavage dosing needle (Popper & Sons Inc., New Hyde Park, N.Y.). The dose administered to each animal was determined from the weight of the full syringe minus that of the empty syringe. The dosing time was recorded. Dosing of animals was spaced apart to allow blood collection at the appropriate times. The dose formulations administered to each group are shown below.
Each mouse was anesthetized with isoflurane, and restrained with the mouth open. The tongue was held to one side of the mouth with forceps, and the dose was slowly injected into the distal part of the oral cavity. The nostrils were covered with a finger for two breaths to ensure aspiration (Rao et al., 2003).
Collection of Blood and Lung Samples: At study termination (1 or 72 h after dosing), mice were anesthetized by exposure to CO2, and blood was collected by cardiac puncture with dipotassium EDTA as anticoagulant. Lung tissue was excised and divided into the right and left lung. The left lung was used for analysis, and the right lung flash frozen in liquid nitrogen and stored at −70° C. for further analysis.
Triamcinolone was used as internal standard.
Lung homogenate was prepared by homogenization of weighed lung samples with 2.8-mm ball bearings in a homogenizer with tissue+deionized water (1:3 w/v) in a SPEX SamplePrep 2010 Geno/Grinder.
The concentrations of standards were arranged so that each standard came from an alternate stock standard. A six-point calibration curve, each made in triplicate, was employed for analyte quantitation. A simple linear regression model with or without weighting was employed for curve fitting. The concentration range determined was from 1-2000 ng/mL in blood and 2-2000 ng/mL in lung homogenate.
Thirty (30) μL of matrix, 30 μL of spiking solution (methanol for blanks and samples), 10 μL Internal standard solution (in MeOH) and 90 μL of MeOH were pipetted into microcentrifuge tubes, vortexed briefly, then centrifuged for 6 min at 10,000 RPM at ˜4° C. Aliquots (90 μL) of supernatant were transferred to LC vial inserts, and then analyzed by LC-MS/MS (Table 2).

[11] = cancer patients administered temsirolimus or everolimus; cited from earlier work
[12] = Gavage (Rapamune Oral), 1 h post-dose, individual animals
[13] = OPA, 1 h post-dose, individual animals
[14] = OPA, 72 h post-dose, individual animals

SMILES: CO[C@H]1C[C@@H]2CC[C@@H](C)[C@@](O)(O2)C(=O)C(=O)N2CCCC[C@H]2C(=O)O[C@H]([C@H](C)C[C@@H]2CC[C@@H](O)[C@H](OC)C2)CC(=O)[C@H](C)/C=C(\C)[C@@H](O)[C@@H](OC)C(=O)[C@H](C)C[C@H](C)/C=C/C=C/C=C/1C [Rapamycin, (3S,6R,7E,9R,10R,12R,14S,15E,17E,19E,21S,23S,26R,27R,34aS)-9,10,12,13, -14,21,22,23,24,25,26,27,32,33,34,34a-hexadecahydro-9,27-dihydroxy-3-[(1R)-2-[(1S,3R,4R)-4-hydroxy-3-methoxycyclohexyl]-1-methylethyl]-10,21-dimethox-y-6,8,12,14,20,26-hexamethyl-23,27-epoxy-3H-pyrido[2,1-c][1,4]oxaazacyclohentriacontine-1,5,11,28,29(4H,6H,31H)-pentone]
- Lung function ([1]; blood levels 5-15 ng/ml): stabilized lung function
- Serum VEGF-D levels ([1]; blood levels 5-15 ng/ml): reduced serum VEGF-D levels
- Blood levels at which patients were maintained [1]: 5 to 15 ng/mL
- Serious adverse events ([2]; 24 months): diarrhea, pneumonia, pyelonephritis, cellulitis (from an animal bite), stomatitis, and hemorrhage of a renal angiomyolipoma
- Angiomyolipoma response ([2]; during the treatment period): regressed “somewhat”
- PSD Dv10 ([3]; jet milling): 1.5 μm and 1.51 μm
- PSD Dv50 ([3]; jet milling): 2.7 μm and 2.74 μm
- PSD Dv90 ([3]; jet milling): 4.9 μm and 4.91 μm
- PSD Dv10 ([3]; wet polishing): 1.0 μm and 1.05 μm
- PSD Dv50 ([3]; wet polishing): 2.4 μm and 2.42 μm
- PSD Dv90 ([3]; wet polishing): 5.0 μm and 4.97 μm
- Chemical stability of the amorphous form [4]: extremely chemically unstable
- Drug level in the lung that substantially abrogates mTOR signaling (pS6) [5]: about 70 ng/g
- Renal angiomyolipoma response ([6]; up to 2 years): sustained regression of renal angiomyolipomas
- Steady state blood levels ([6]; up to 2 years): 3 to 10 ng/mL
- Adverse events [6]: oral mucositis, respiratory infections, and proteinuria
- Volume of distribution ([7]; Rapamune NDA 21-110 and 21-083): 780 L
- Elimination half-life ([7]; assuming equivalency to rapamycin IV dosing): 42.3 h
- Patients discontinued because of serious recurrent lower respiratory tract infection or sirolimus-induced pneumonitis [8]: 3 patients
- Clinical signs ([9]; OPA or gavage, 1 mg/kg, up to 72 h after dosing, all groups): No significant clinical signs were observed
- Adverse effects ([9]; OPA, 1 mg/kg, 72 h period following dosing): No adverse effects were observed
- Acute toxicity to lung tissue ([9]; relatively high amounts delivered directly to lung (OPA, 1 mg/kg)): not acutely toxic to lung tissue
- Blood [10, 12]: 49.85 ng/mL and 11.3 ng/mL and 28.7 ng/mL and 28.35 ng/mL and 2.845 ng/mL and 19.35 ng/mL
- Lung (ng/g tissue) [10, 12]: 109.8 ng/g tissue and 24.66 ng/g tissue and 122.8 ng/g tissue and 54 ng/g tissue and <LOQ and 43 ng/g tissue
- Blood [10, 13]: 622 ng/mL and 364.5 ng/mL and 937 ng/mL and 848.5 ng/mL and 615.5 ng/mL and 455.5 ng/mL
- Lung (ng/g tissue) [10, 13]: 4500 ng/g tissue and 1874 ng/g tissue and 4006 ng/g tissue and 4700 ng/g tissue and 5040 ng/g tissue and 2642 ng/g tissue
- Rapamycin in blood, group statement ([10]; OPA, 72 h post-dose): below the limit of quantitation; also recorded: undetectable
- Blood (ng/ml) [10, 14]: <ELOQ
- Lung (ng/g tissue) [10, 14]: 11.4 ng/g tissue and 15.7 ng/g tissue and 10.8 ng/g tissue and 11.9 ng/g tissue and 13.6 ng/g tissue
- Rapamycin in blood ([10]; oral (gavage), 72 hrs): undetectable
- Rapamycin in lung ([10]; oral (gavage), 72 hrs): undetectable

SMILES: CO[C@H]1C[C@@H]2CC[C@@H](C)[C@@](O)(O2)C(=O)C(=O)N2CCCC[C@H]2C(=O)O[C@H]([C@H](C)C[C@@H]2CC[C@@H](OCCO)[C@H](OC)C2)CC(=O)[C@H](C)/C=C(\C)[C@@H](O)[C@@H](OC)C(=O)[C@H](C)C[C@H](C)/C=C/C=C/C=C/1C [everolimus]
- Cancer patients who may experience mild grade pulmonary toxicity [11]: 10%

SMILES: CO[C@H]1C[C@@H]2CC[C@@H](C)[C@@](O)(O2)C(=O)C(=O)N2CCCC[C@H]2C(=O)O[C@H]([C@H](C)C[C@@H]2CC[C@@H](OC(=O)C(C)(CO)CO)[C@H](OC)C2)CC(=O)[C@H](C)/C=C(\C)[C@@H](O)[C@@H](OC)C(=O)[C@H](C)C[C@H](C)/C=C/C=C/C=C/1C [temsirolimus]
- Cancer patients who may experience mild grade pulmonary toxicity [11]: 10%
